According to patent US20150359794A1, “IMPAIRMENT OF THE LARGE RIBOSOMAL SUBUNIT PROTEIN RPL24 BY DEPLETION OR ACETYLATION” (Buck Institute for Research on Aging, priority 2014, published 2015):

How the values were obtained:
[1] = system: tubulin; assay: Western blot for tubulin acetylation in SKBR3 cells; format: cell-based, human; details: western blot (FIG. 4c,d)
Source text: Like TSA, the HDAC6 (class IIb)-selective inhibitors, Tubacin and Compound 101, as well as HDAC6 siRNA, all induce tubulin acetylation as expected as well as ribosomal protein acetylation, including the band that co-migrates with RPL24 (FIG. 4c,d, indicated by arrows). […] Thus, the tubulin acetylating effects of pan-histone deacetylase inhibition, known to be mediated by inhibition or knockdown of HDAC6, correspond to the observed ribosome and RPL24 acetylation responses induced by TSA.
Cells are lysed in RIPA buffer (10 mM Tris-HCL (pH 8.0), 1 mM EDTA, 0.5 mM EGTA, 1% triton X-100, 0.1% sodium deoxycholate, 0.1% SDS, 140 mM NaCl, 20 mM NaF, Complete EDTA-free protease inhibitor tablets (Roche Diagnostics Corp., Basel, Switzerland) and the phosphatase inhibitor cocktail PhosSTOP (Roche)), the latter two as indicated by the manufacturer's protocol. Equal amounts of protein are diluted in 2× sample buffer. Immunoblots on PVDF (Polyvinyldene Fluoride) membranes are blocked with nonfat milk in tris-buffered saline with 0.05% tween-20 (TBST). The following antibodies are incubated with membranes in 5% nonfat milk in TBST: RPL24 (Proteintech, Chicago, Ill.), Cyclin D1, Rack1, RPL4 (Santa Cruz Biotechnology, Santa Cruz, Calif.), NBS1, GAPDH (EMD Millipore Corporation, Chicago, Ill.), Survivin, β-tubulin, acetyl-lysine, eIF6, acetyl-H2B, H2B, (Cell Signaling Technology, Boston, Mass.), acetyl-tubulin, tubulin (Sigma Aldrich (St. Louis, Mo.))
FIG. 4: Ribosomal protein acetylation is induced by histone deacetylase inhibition. (a-c) SKBR3 cells were treated with the indicated drugs for the indicated period of time. (d) SKBR3 cells were transfected with the indicated siRNAs and allowed to incubate for 72 hours. (a, c, d). The indicated western blots were performed in ribopellets, total cytoplasmic lysates, or nuclear extracts. (b) Mass spectrometry was performed on ribopellets as described in materials and methods and in FIG. 6. The fold change in acetylated peptide to total peptide case by TSA treatment is plotted. Only proteins that underwent at least a two-fold induction upon TSA treatment are shown. Error bars represent the standard error of the mean for three biological replicates.

[2] = system: RPL24; assay: LC-MS/MS of RPL24 lysine acetylation (K27, K93) on 60S subunits and polysomes; format: cell-based, human; details: SKBR3 cells, TSA 1 μM, 2 h
Procedure: Mass spectrometry studies were performed to identify sites of lysine (K) acetylation within RPL24 induced by histone deacetylase inhibition. Continuous and discontinuous sucrose gradient fractionations were performed to isolate 60S subunits and total polysomes respectively. Polyacrylamide gel electrophoresis was then performed on 60S and polysome samples and RPL24-containing bands were excised, trypsin digested, and subjected to mass spectrometry (LC-MS/MS) (FIG. 6a). Among several detected acetylated RPL24 peptides, two were increased by TSA treatment; TDGKacVFQFLNAK (acetyl-K27) (SEQ ID NO:1) and AITGASLADIM*AKacR (acetyl-K93) (SEQ ID NO:2), where the internal lysines in both peptides are N-acetylated (Kac). As the MS experiments of the 60S polysome were performed after in-gel digestion the methionine residue of the second peptide was predominantly oxidized (M*=M+16), as commonly observed during SDS PAGE processing. In independent, in-solution digestion experiments, the corresponding non-oxidized form of acetylated peptide AITGASLADIMAKacR (SEQ ID NO:3) with correlating MS/MS fragmentation pattern was identified. Representative spectra are shown for TDGKacVFQFLNAK (acetyl-K27) (SEQ ID NO:1) and AITGASLADIM*AKacR (acetyl-K93) (SEQ ID NO:2)) (FIG. 11a,b). In 3 biological replicate experiments, the amount of K27-acetylated RPL24, normalized to total protein concentration within the 60S subunit, was increased at least 2-fold within 2 h of TSA treatment. […] Given the proximity of the T. thermophilia RPL24 K26 site (that resides in a homologous region to human K27) to eIF6 (FIG. 7a), these findings implicate involvement of the TSA induced acetylation of RPL24 at K27 in preventing 40S-60S subunit joining and 60S retention of eIF6.
To prepare polysome samples for mass spectrometry, cells are treated with a histone deacetylase inhibitor and polysome pellets are prepared using a discontinuous sucrose gradient as described above. Protein concentration is determined using the Pierce BCA Protein Assay Kit (Thermo Scientific) and equal amount of protein are trypsin digested. Acetyl-lysine immunoprecipitations are carried out on resultant peptides using an antibody from Cell Signaling Technology. Acetyl-proteins are then eluted, extracted, and desalted.
To determine the acetylation status of 60S subunit proteins, cells are treated with histone deacetylase inhibitor and polysome profiles are performed as described above. The four fractions representing the 60S subunit are identified via western blots for Rack1 and RPL24. […]
Three biological replicates of polysome or 60S samples are then analyzed by LC-MS/MS using a quadrupole time-of-flight (QqTOF) TripleTOF 5600 mass spectrometer (AB SCIEX, Dublin, Calif.) coupled to an Eksigent (Dublin, Calif.) nanoLC Ultra, 2D plus. […]

SMILES: CC(/C=C/C(=O)NO)=C\[C@@H](C)C(=O)c1ccc(N(C)C)cc1 [TSA, trichostatin-A]
- tubulin acetylation [1]: induce
- RPL24 K93 acetylation within the 60S subunits [2]: not significantly changed
- induction of K93 acetylation within RPL24 associated with polysomes [2]: 2.5 fold
- induction of RPL24 K27 acetylation within polysomes [2]: no significant induction
- increase of K27-acetylated RPL24 within the 60S subunit, normalized to total protein ([2]; 3 biological replicates): at least 2 fold
